Assays:
Assay type in all cases: cell-based
A2A receptor [1] = biological target: T1, A2A receptor (Homo sapiens, UniProt P29274); test: A2aR antagonism IC50, cAMP TR-FRET (Lance Ultra) in HEK-293 cells, NECA as agonist; details: A2AR IC50 (nM) (@5 nM NECA), HEK-293 cells expressing A2A receptor; agonist NECA 5 nM (EC90); inhibition of cAMP;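 note: compounds tested from 10 µM down to 0.08 nM in buffer with Rolipram at room temperature, TR-FRET cAMP signal read 1 h after adding Eu-cAMP tracer and ULight anti-cAMP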
T1 construct: host or cells: HEK-293
Description: Adenosine A2A receptors and Adenosine A2B receptors induce the production of cAMP when activated/stimulated by an agonist like adenosine or 5′-(N-Ethylcarboxamido) adenosine (NECA). A Time-Resolved Fluorescence Energy Transfer (TR-FRET) assay was used to show the inhibition of this cAMP production in HEK cells upon treatment with compounds of the Formula I of the present disclosure.
HEK-293 cells expressing A2A receptor (#ES-011-C) or A2B receptor (#ES 013-C) were obtained from PerkinElmer. Cells were maintained in DMEM medium supplemented with 10% FBS and 200 μg/mL of G418 at 37° C. and 5% CO2. The cells were cultured in antibiotic free medium for a period of 16-20 hours prior to the assay. All subsequent steps of the assay are performed at room temperature (22-24° C.). The cells were harvested at about 80% confluency by gentle flushing with PBS, recovered by centrifugation and resuspended in stimulation buffer at the concentration of 5.0×10^6 cells/mL.
The assays were conducted in a stimulation buffer containing 1×DMEM, 5 mM HEPES, 0.1% BSA stabilizer and 20-30 μM Rolipram. Serial dilutions of compounds were made in stimulation buffer to achieve a final concentration of high micromolar (10 μM to 0.08 nM) in the reaction volume of 10 μL. The total reaction volume was 10 μL (5 μL of cells, 2.5 μL of antagonist and 2.5 μL of agonist). The stimulation was ended, and the reaction completed by adding 5 μL of 4× Eu-cAMP tracer working solution and 5 μL of 4× ULight-anti-cAMP working solution. The TR-FRET signal was measured after 1-hour incubation using a Tecan M1000 reader.

A2B receptor = biological target: T2, A2B receptor (Homo sapiens, UniProt P29275); test: A2bR antagonism IC50, cAMP TR-FRET (Lance Ultra) in HEK-293 cells, NECA as agonist; set-up: host or cells: HEK-293; details: HEK-293 cells expressing A2B receptor; agonist NECA 30 nM (EC90); inhibition of cAMP
T2 sequence (P29275 1-332): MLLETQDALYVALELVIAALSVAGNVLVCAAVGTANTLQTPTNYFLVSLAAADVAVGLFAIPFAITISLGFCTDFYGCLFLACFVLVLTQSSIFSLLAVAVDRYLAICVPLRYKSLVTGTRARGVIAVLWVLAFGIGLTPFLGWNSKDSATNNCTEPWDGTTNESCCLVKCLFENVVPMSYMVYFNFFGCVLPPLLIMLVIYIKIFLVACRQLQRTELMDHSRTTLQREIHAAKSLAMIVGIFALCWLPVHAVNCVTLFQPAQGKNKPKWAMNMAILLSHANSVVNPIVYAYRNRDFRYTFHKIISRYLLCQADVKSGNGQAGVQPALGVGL

A2A receptor [2] = biological target: T1, A2A receptor; test: A2aR antagonism IC50, cAMP TR-FRET in HEK-293 cells, high concentration of adenosine (30 μM); details: HEK-293 cells expressing A2A receptor, agonist adenosine 30 μM, 2% HSA, inhibition of cAMP;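 note: compounds added 10 min before adenosine, then 30 min stimulation at room temperature in buffer with 100 µM rolipram and 30 µM EHNA, signal read 1 h after detection reagents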
[3] = read-out: A2AR IC50 (nM) (@30 μM Adenosine)

T1 sequence (P29274 whole entry): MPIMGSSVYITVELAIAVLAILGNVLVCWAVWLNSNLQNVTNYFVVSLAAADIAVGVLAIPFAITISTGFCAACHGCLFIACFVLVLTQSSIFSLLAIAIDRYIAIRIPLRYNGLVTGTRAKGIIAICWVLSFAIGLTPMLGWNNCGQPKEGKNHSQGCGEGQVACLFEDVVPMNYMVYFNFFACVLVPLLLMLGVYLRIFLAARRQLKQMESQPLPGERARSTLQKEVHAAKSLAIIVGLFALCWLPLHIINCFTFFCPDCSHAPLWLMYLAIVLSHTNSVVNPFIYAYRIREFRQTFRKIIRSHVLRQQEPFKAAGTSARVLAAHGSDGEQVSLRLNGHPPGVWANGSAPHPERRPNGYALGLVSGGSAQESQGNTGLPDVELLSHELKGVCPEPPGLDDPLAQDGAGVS

IC50 (A2A receptor [1])	IC50 (A2B receptor)	IC50 (A2A receptor [2]; [3])	SMILES	IC50 (A2A receptor [2]; A2AR IC50 (nM) (@30 μM Adenosine))
2.2 nM	51 nM	7660 nM	CCc1c(C(F)F)nn2c(N)c(C#N)c(NCCc3ccn(C(C)(C)CO)n3)nc12 [Example 48, 7-amino-2-(difluoromethyl)-3-ethyl-5-((2-(1-(1-hydroxy-2-methylpropan-2-yl)-1H-pyrazol-3-yl)ethyl)amino) pyrazolo[1,5-a]pyrimidine-6-carbonitrile]	
< 1 nM	27 nM	227 nM	Cc1nn2c(N)c(C#N)c(NCCc3cccc(C(C)(C)CO)n3)nc2c1Cl [Example 65, 7-amino-3-chloro-5-((2-(6-(1-hydroxy-2-methylpropan-2-yl)pyridin-2-yl)ethyl)amino)-2-methylpyrazolo[1,5-a]pyrimidine-6-carbonitrile]	
2.5 nM	2.2 nM		CCc1c(C)nn2c(N)c(C#N)c(NC(C)Cc3ccccn3)nc12 (single isomer, unassigned) [Example 22, 7-Amino-3-ethyl-2-methyl-5-((1-(pyridin-2-yl)propan-2-yl)amino) pyrazolo[1,5-a]pyrimidine-6-carbonitrile]	
10 nM	1330 nM		Cc1cccc(C(C)Nc2nc3c(C)c(C)nn3c(N)c2C#N)n1 (stereo not shown) [Example 1, 7-amino-2,3-dimethyl-5-{[1-(6-methylpyridin-2-yl)ethyl]amino}pyrazolo[1,5-a]pyrimidine-6-carbonitrile]	
0.9 nM	3.7 nM		COc1cccc(CCNc2nc3c(C)c(C)nn3c(N)c2C#N)n1 [Example 12, 7-amino-5-((2-(6-methoxypyridin-2-yl)ethyl)amino)-2,3-dimethylpyrazolo[1,5-a]pyrimidine-6-carbonitrile]	
1 nM	7 nM		Cc1cccc(CC(C)Nc2nc3c(C)c(C)nn3c(N)c2C#N)n1 (single isomer, unassigned) [Example 14, 7-amino-2,3-dimethyl-5-{[1-(6-methylpyridin-2-yl)propan-2-yl]amino}pyrazolo[1,5-a]pyrimidine-6-carbonitrile]	
2.9 nM	0.83 nM		Cc1cccc(CCNc2nc3c(CC4CC4)c(C)nn3c(N)c2C#N)n1 [Example 26, 7-amino-3-(cyclopropylmethyl)-2-methyl-5-((2-(6-methylpyridin-2-yl)ethyl)amino) pyrazolo[1,5-a]pyrimidine-6-carbonitrile]	
3.3 nM	11 nM		CCc1c(C(F)F)nn2c(N)c(C#N)c(NCCc3cccc(CO)n3)nc12 [Example 56, 7-amino-2-(difluoromethyl)-3-ethyl-5-((2-(6-(hydroxymethyl)pyridine-2-yl)ethyl)amino) pyrazolo[1,5-a] pyrimidine-6-carbonitrile]	
5 nM	42 nM		CCc1c(C)nn2c(N)c(C#N)c(NCCc3nn(C(C)(C)CO)cc3F)nc12 [Example 62]	
5.5 nM	9.5 nM		CCc1c(C)nn2c(N)c(C#N)c(NCCc3ccc(C)cn3)nc12 [Example 18, 7-Amino-3-ethyl-2-methyl-5-((2-(5-methylpyridin-2-yl)ethyl)amino) pyrazolo[1,5-a]pyrimidine-6-carbonitrile]	
2.3 nM	41 nM		Cc1ccc(CCNc2nc3c(C)c(C)nn3c(N)c2C#N)nc1 [Example 10, 7-Amino-2,3-dimethyl-5-((2-(5-methylpyridin-2-yl)ethyl)amino) pyrazolo[1,5-a] pyrimidine-6-carbonitrile]	
0.88 nM	73 nM		Cc1ccc(F)c(CCNc2nc3c(C)c(C)nn3c(N)c2C#N)n1 [Example 41, 7-amino-5-((2-(3-fluoro-6-methylpyridin-2-yl)ethyl)amino)-2,3-dimethylpyrazolo[1,5-a]pyrimidine-6-carbonitrile]	
1.3 nM	2.3 nM		Cc1nn2c(N)c(C#N)c(NCCc3cccc(CO)n3)nc2c1C [Example 44, 7-amino-5-((2-(6-(hydroxymethyl)pyridin-2-yl)ethyl)amino)-2,3-dimethylpyrazolo[1,5-a]pyrimidine-6-carbonitrile]	
13 nM	100 nM		Cc1nn2c(N)c(C#N)c(NCc3ccn(C(C)(C)CO)n3)nc2c1C [Example 57, 7-amino-5-(((1-(1-hydroxy-2-methylpropan-2-yl)-1H-pyrazol-3-yl)methyl)amino)-2,3-dimethylpyrazolo[1,5-a]pyrimidine-6-carbonitrile]	
0.2 nM	14 nM		CCc1c(C)nn2c(N)c(C#N)c(NCCc3cccc(C(C)(C)O)n3)nc12 [Example 25, 7-amino-3-ethyl-5-({2-[6-(2-hydroxypropan-2-yl)pyridin-2-yl]ethyl}amino)-2-methylpyrazolo[1,5-a]pyrimidine-6-carbonitrile]	
2.3 nM	123 nM		CCc1nn2c(N)c(C#N)c(NCCc3cccc(C(C)(C)O)n3)nc2c1C [Example 43, 7-amino-2-ethyl-5-((2-(6-(2-hydroxypropan-2-yl)pyridin-2-yl)ethyl)amino)-3-methylpyrazolo[1,5-a]pyrimidine-6-carbonitrile]	
25 nM	1370 nM		CCc1c(C)nn2c(N)c(C#N)c(N[C@@H](C)c3ccccn3)nc12 [Example 4, (S)-7-Amino-3-ethyl-2-methyl-5-((1-(pyridin-2-yl)ethyl)amino) pyrazolo[1,5-a] pyrimidine-6-carbonitrile]	
3.9 nM	13 nM		CCc1c(C)nn2c(N)c(C#N)c(NCCc3ccc(F)cn3)nc12 [Example 21, 7-Amino-3-ethyl-5-((2-(5-fluoropyridin-2-yl)ethyl)amino)-2-methylpyrazolo[1,5-a]pyrimidine-6-carbonitrile]	
6.6 nM	> 3000 nM		Cc1cccc(CNc2nc3c(C)c(C)nn3c(N)c2C#N)n1 [Example 6, 7-amino-2,3-dimethyl-5-{[(6-methylpyridin-2-yl)methyl]amino}pyrazolo[1,5-a] pyrimidine-6-carbonitrile]	
0.59 nM	> 3000 nM		CCc1cccc(CNc2nc3c(C)c(C)nn3c(N)c2C#N)n1 [Example 7, 7-amino-5-{[(6-ethylpyridin-2-yl)methyl]amino}-2,3-dimethylpyrazolo[1,5-a] pyrimidine-6-carbonitrile]	
1 nM	18 nM		CCn1ccc(CCNc2nc3c(C)c(C)nn3c(N)c2C#N)n1 [Example 29, 7-amino-5-{[2-(1-ethyl-1H-pyrazol-3-yl)ethyl]amino}-2,3-dimethylpyrazolo[1,5-a]pyrimidine-6-carbonitrile]	
0.3 nM	27 nM		Cc1nn2c(N)c(C#N)c(NCCc3cccc(C(C)(C)CO)n3)nc2c1C [Example 53, 7-amino-5-((2-(6-(1-hydroxy-2-methylpropan-2-yl)pyridine-2-yl)ethyl)amino)-2,3-dimethylpyrazolo[1,5-a]pyrimidine-6-carbonitrile]	
0.54 nM	29.3 nM		CCc1c(C)nn2c(N)c(C#N)c(NCCc3cccc(C(C)(C)CO)n3)nc12 [Example 52, 7-amino-3-ethyl-5-((2-(6-(1-hydroxy-2-methylpropan-2-yl)pyridin-2-yl)ethyl)amino)-2-methylpyrazolo[1,5-a] pyrimidine-6-carbonitrile]	
46 nM	1680 nM		Cc1cccc(CN(C)c2nc3c(C)c(C)nn3c(N)c2C#N)n1 [Example 8, 7-amino-2,3-dimethyl-5-{methyl[(6-methylpyridin-2-yl)methyl]amino}pyrazolo [1,5-a] pyrimidine-6-carbonitrile]	
2 nM	547 nM		Cc1cccc([C@H](C)Nc2nc3c(C)c(C)nn3c(N)c2C#N)n1 [Example 2, 7-amino-2,3-dimethyl-5-{[(1S)-1-(6-methylpyridin-2-yl)ethyl]amino}pyrazolo [1,5-a]pyrimidine-6-carbonitrile]	
2.1 nM	36 nM		CCc1c(C)nn2c(N)c(C#N)c(NCCc3ccc(OC)cn3)nc12 [Example 19, 7-Amino-3-ethyl-5-((2-(5-methoxypyridin-2-yl)ethyl)amino)-2-methylpyrazolo [1,5-a]pyrimidine-6-carbonitrile]	
0.74 nM	5 nM		CCc1c(C)nn2c(N)c(C#N)c(NCCc3ccn(CCO)n3)nc12 [Example 54, 7-amino-3-ethyl-5-((2-(1-(2-hydroxyethyl)-1H-pyrazol-3-yl)ethyl)amino)-2-methylpyrazolo[1,5-a]pyrimidine-6-carbonitrile]	
2 nM	53 nM		Cc1nn2c(N)c(C#N)c(NCCc3cccc(C(C)(C)O)n3)nc2c1C [Example 16, 7-amino-5-({2-[6-(2-hydroxypropan-2-yl)pyridin-2-yl]ethyl}amino)-2,3-dimethylpyrazolo[1,5-a]pyrimidine-6-carbonitrile]	

SMILES	IC50 (A2A receptor [1])	IC50 (A2B receptor)	IC50 (A2A receptor [2]; [3])	IC50 (A2A receptor [2]; A2AR IC50 (nM) (@30 μM Adenosine))
Cc1nn2c(N)c(C#N)c(NCCc3nc(C4(CO)CC4)cs3)nc2c1Cl [Example 61, 7-amino-3-chloro-5-((2-(4-(1-(hydroxymethyl)cyclopropyl)thiazol-2-yl)ethyl)amino)-2-methylpyrazolo[1,5-a] pyrimidine-6-carbonitrile]	< 1 nM	24 nM		574 nM

Source: patent US12577247B2 (BUGWORKS RESEARCH, INC., priority 2021, dated 2026)
